Assay results: the supplement of paper PMC11061612

Columns and labels:
[1] = compound: C1CN(CCC1(C(=O)N[C@@H](CCO)C2=CC=C(C=C2)Cl)N)C3=NC=NC4=C3C=CN4 [Capivasertib]
Method in brief: (§1)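 After 24 hours at 37°C and 5% CO2 in 1536-well plates holding 7.5 μl of DMEM/F12 or RPMI with 10% FBS, cancer cell lines were dosed for 72 hours, with final DMSO typically 0.2%. Viability came from CellTiter-Glo 2.0 luminescence, scaled between the means of blank wells and DMSO wells. A non-linear mixed effects model fitted a two-parameter logistic curve to each dose response to give the single-agent IC50.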

[2] = compound: C=CCn1c(=O)c2cnc(Nc3ccc(N4CCN(C)CC4)cc3)nc2n1-c1cccc(C(C)(C)O)n1 [AZD1775]; details: max 3 µM
Method in brief: as §1

[3] = compound: CC(=O)Nc1cccc(-n2c(=O)n(C3CC3)c(=O)c3c(Nc4ccc(I)cc4F)n(C)c(=O)c(C)c32)c1 [Trametinib]; details: max 1 µM
Method in brief: as §1

[4] = compound: CC(=O)c1c(C)c2cnc(Nc3ccc(N4CCNCC4)cn3)nc2n(C2CCCC2)c1=O [Palbociclib]; details: max 10 µM
Method in brief: as §1

[5] = compound: CC(C)n1c(=O)n(C)c2cnc3cc(F)c(-c4ccc(OCCCN5CCCCC5)nc4)cc3c21 [AZD1390]; details: max 0.3 µM
Method in brief: as §1

[6] = compound: CC1(C)CCC(CN2CCN(c3ccc(C(=O)NS(=O)(=O)c4ccc(NCC5CCOCC5)c([N+](=O)[O-])c4)c(Oc4cnc5[nH]ccc5c4)c3)CC2)=C(c2ccc(Cl)cc2)C1 [Venetoclax]; details: max 1 µM
Method in brief: as §1

[7] = compound: CC1=C(C(=CC=C1)Cl)NC(=O)C2=CN=C(S2)NC3=CC(=NC(=N3)C)N4CCN(CC4)CCO [Dasatinib]; details: max 2 µM
Method in brief: as §1

[8] = compound: CCN(CCO)CCCOc1ccc2c(Nc3cc(CC(=O)Nc4cccc(F)c4)[nH]n3)ncnc2c1 [AZD2811]; details: max 1 µM
Method in brief: as §1

[9] = compound: CCc1c2c(nc3ccc(O)cc13)-c1cc3c(c(=O)n1C2)COC(=O)[C@]3(O)CC [SN-38]; details: max 0.3 µM
Method in brief: as §1

[10] = compound: CN(C)CCCOc1ccc(-c2ccc3ncc4c(c3c2)n(C2CCOCC2)c(=O)n4C)cn1 [AZD0156]; details: max 3 µM
Method in brief: as §1

[11] = compound: CN(CC[C@H](CSC1=CC=CC=C1)NC2=C(C=C(C=C2)S(=O)(=O)NC(=O)C3=CC=C(C=C3)N4CCC(CC4)[C@H](C5=CC=CC=C5C6=CC=C(C=C6)Cl)O)S(=O)(=O)C(F)(F)F)CCO [AZD4320]; details: max 1 µM
Method in brief: as §1

[12] = compound: COc1cc(Nc2ncc3c(n2)-c2ccc(Cl)cc2C(c2c(F)cccc2OC)=NC3)ccc1C(=O)O [Alisertib]; details: max 10 µM
Method in brief: as §1

[13] = compound: COc1cc2ncnc(Nc3ccc(F)c(Cl)c3)c2cc1OCCCN1CCOCC1 [Gefitinib]; details: max 10 µM
Method in brief: as §1

[14] = compound: COc1cccc(OCCCN)c1-c1cc(Nc2cnc(C#N)cn2)n[nH]1 [Prexasertib]; details: max 1 µM
Method in brief: as §1

[15] = compound: COc1nnc2ccc(N3CCC(c4ccc(OCCN5CCN(C)C(=O)[C@H]5C)cc4)CC3)nn12 [AZD5153]; details: max 1 µM
Method in brief: as §1

[16] = compound: CS(=O)(=O)CCNCc1ccc(-c2ccc3ncnc(Nc4ccc(OCc5cccc(F)c5)c(Cl)c4)c3c2)o1 [Lapatinib]; details: max 10 µM
Method in brief: as §1

[17] = compound: C[C@@H](Nc1cc(F)cc(F)c1)c1cc(C(=O)N(C)C)cc2c(=O)cc(N3CCOCC3)oc12 [AZD8186]; details: max 3 µM
Method in brief: as §1

[18] = compound: C[C@@H](Oc1cc(-c2cnn(C3CCNCC3)c2)cnc1N)c1c(Cl)ccc(F)c1Cl [Crizotinib]; details: max 10 µM
Method in brief: as §1

[19] = compound: C[C@@H](c1ccc2nccn2c1)n1nnc2ncc(-c3cnn(C)c3)nc21 [Savolitinib]; details: max 1 µM
Method in brief: as §1

[20] = compound: C[C@@H]1COCCN1C2=NC(=NC(=C2)C3(CC3)[S@](=N)(=O)C)C4=C5C=CNC5=NC=C4 [AZD6738]; details: max 10 µM
Method in brief: as §1

[21] = compound: Cc1c2c(nn1C)CSCc1cc(n(C)n1)CSc1cc(c3ccccc3c1)OCCCc1c(C(=O)O)n(C)c3c-2c(Cl)ccc13 [AZD5991]; details: max 1 µM
Method in brief: as §1

[22] = compound: Cc1cc2ncnn2cc1Nc1ncc2c(n1)n(C1CCOCC1)c(=O)n2C [AZD7648]; details: max 10 µM
Method in brief: as §1

[23] = compound: Cc1nc(-c2cn3c(n2)-c2ccc(-c4cnn(C(C)(C)C(N)=O)c4)cc2OCC3)n(C(C)C)n1 [Taselisib]; details: max 10 µM
Method in brief: as §1

[24] = compound: Cn1cnc2c(F)c(Nc3ccc(Br)cc3Cl)c(C(=O)NOCCO)cc21 [Selumetinib]; details: max 10 µM
Method in brief: as §1

[25] = compound: O=C(c1cc(Cc2n[nH]c(=O)c3ccccc23)ccc1F)N1CCN(C(=O)C2CC2)CC1 [Olaparib]
Method in brief: as §1

[26] = compound: CC1=CN2[C@@H](C1)C=NC3=CC(=C(C=C3C2=O)OC)OCCCCCOC4=C(C=C5C(=C4)N=C[C@@H]6CC(=CN6C5=O)C)OC [SG3199]; details: max 0.001 µM
Method in brief: as §1

[27] = compound: COc1cccc2c1C(=O)c1c(O)c3c(c(O)c1C2=O)C[C@@](O)(C(=O)CO)C[C@@H]3O[C@H]1C[C@H](N)[C@H](O)[C@H](C)O1 [Doxorubicin]; details: max 1 µM
Method in brief: as §1

In the case of MHH-CALL-2 (B-Lymphoblastic Leukemia), the “IC50, cell viability 72 h” value ([1]; max 10 µM) is reported as greater than 10000 nM, the “IC50, cell viability 72 h” value [2] is reported as 1070 nM and the “IC50, cell viability 72 h” value [3] is reported as greater than 1000 nM. For the same cell line, the “IC50, cell viability 72 h” value [4] was greater than 10000 nM, the “IC50, cell viability 72 h” value [5] was greater than 300 nM and the “IC50, cell viability 72 h” value [6] was greater than 1000 nM. For the same cell line, the “IC50, cell viability 72 h” value [7] was greater than 2000 nM, the “IC50, cell viability 72 h” value [8] was greater than 1000 nM and the “IC50, cell viability 72 h” value [9] was 2.33 nM. The “IC50, cell viability 72 h” value [10] was greater than 3000 nM, the “IC50, cell viability 72 h” value [11] was greater than 1000 nM and the “IC50, cell viability 72 h” value [12] was 3120 nM. The “IC50, cell viability 72 h” value [13] was greater than 10000 nM, the “IC50, cell viability 72 h” value [14] was 93.4 nM and the “IC50, cell viability 72 h” value [15] was greater than 1000 nM. For the same cell line, the “IC50, cell viability 72 h” value [16] was greater than 10000 nM, the “IC50, cell viability 72 h” value [17] was greater than 3000 nM and the “IC50, cell viability 72 h” value [18] was 679 nM. For the same cell line, the “IC50, cell viability 72 h” value [19] was greater than 1000 nM, the “IC50, cell viability 72 h” value [20] was 3260 nM and the “IC50, cell viability 72 h” value [21] was 150 nM. The “IC50, cell viability 72 h” value [22] was greater than 10000 nM, the “IC50, cell viability 72 h” value [23] was 9370 nM and the “IC50, cell viability 72 h” value [24] was greater than 10000 nM. For the same cell line, the “IC50, cell viability 72 h” value ([25]; max 3 µM) was greater than 3000 nM.

With NCI-H720 (Other Solid Carcinomas) the “IC50, cell viability 72 h” value ([1]; max 3 µM) was 812 nM, the “IC50, cell viability 72 h” value [2] was 1480 nM and the “IC50, cell viability 72 h” value [26] was greater than 1 nM. For the same cell line, the “IC50, cell viability 72 h” value [8] was 652 nM, the “IC50, cell viability 72 h” value [9] was greater than 300 nM and the “IC50, cell viability 72 h” value [10] was greater than 3000 nM. For the same cell line, the “IC50, cell viability 72 h” value [14] was 441 nM, the “IC50, cell viability 72 h” value [27] was greater than 1000 nM and the “IC50, cell viability 72 h” value [20] was 6580 nM. The “IC50, cell viability 72 h” value [22] was greater than 10000 nM and the “IC50, cell viability 72 h” value ([25]; max 10 µM) was greater than 10000 nM.

With “OE21 (Esophageal Squamous Cell Carcinoma)” the “IC50, cell viability 72 h” value ([1]; max 10 µM) was 5200 nM, the “IC50, cell viability 72 h” value [2] was 718 nM and the “IC50, cell viability 72 h” value [3] was greater than 1000 nM. The “IC50, cell viability 72 h” value [4] was greater than 10000 nM, the “IC50, cell viability 72 h” value [5] was greater than 300 nM and the “IC50, cell viability 72 h” value [6] was greater than 1000 nM. The “IC50, cell viability 72 h” value [7] was 1280 nM, the “IC50, cell viability 72 h” value [26] was greater than 1 nM and the “IC50, cell viability 72 h” value [8] was greater than 1000 nM. The “IC50, cell viability 72 h” value [9] was 214 nM, the “IC50, cell viability 72 h” value [10] was greater than 3000 nM and the “IC50, cell viability 72 h” value [11] was greater than 1000 nM. For the same cell line, the “IC50, cell viability 72 h” value [12] was greater than 10000 nM, the “IC50, cell viability 72 h” value [13] was 3380 nM and the “IC50, cell viability 72 h” value [14] was 43.3 nM. The “IC50, cell viability 72 h” value [27] was greater than 1000 nM, the “IC50, cell viability 72 h” value [15] was 256 nM and the “IC50, cell viability 72 h” value [16] was 6830 nM. The “IC50, cell viability 72 h” value [17] was greater than 3000 nM, the “IC50, cell viability 72 h” value [18] was greater than 10000 nM and the “IC50, cell viability 72 h” value [19] was greater than 1000 nM. The “IC50, cell viability 72 h” value [21] was greater than 1000 nM, the “IC50, cell viability 72 h” value [22] was greater than 10000 nM and the “IC50, cell viability 72 h” value [23] was 1030 nM. The “IC50, cell viability 72 h” value [24] was greater than 10000 nM and the “IC50, cell viability 72 h” value ([25]; max 10 µM) was greater than 10000 nM.
